Test results: publication PMC6520475 (European Journal of Drug Metabolism and Pharmacokinetics, 2018)

Legend:
[1] = general statement, no reference given; cited from earlier work
[2] = cited from earlier work
[3] = Population pharmacokinetic; conditions: base model without covariates

θ1CL, population typical value of CL, base model [3]: 2.47 L/h | θ2Vd, population typical value of Vd, base model [3]: 142 L
SMILES: CN[C@H](CC(C)C)C(=O)N[C@H]1C(=O)N[C@@H](CC(N)=O)C(=O)N[C@H]2C(=O)N[C@H]3C(=O)N[C@H](C(=O)N[C@H](C(=O)O)c4cc(O)cc(O)c4-c4cc3ccc4O)[C@H](O)c3ccc(c(Cl)c3)Oc3cc2cc(c3O[C@@H]2O[C@H](CO)[C@@H](O)[C@H](O)[C@H]2O[C@H]2C[C@](C)(N)[C@H](O)[C@H](C)O2)Oc2ccc(cc2Cl)[C@H]1O [vancomycin]
Fraction of vancomycin excreted through the kidney [1]: 90% | Vd, PopPK model ([2]; Adult Chinese patients, n = 72, 1-compartment model, ref 7 (Deng)): 47.76 L | V2, PopPK model ([2]; Adult Gram-positive bacterial infection in ICU, n = 103, ref 25 (Weng Fangjuan)): 44.2 L | CL, PopPK model ([2]; MRSA infectors, n = 76, 1-compartment model, ref 11 (Leu)): CLCR
